The record followed here is patent publication US20260297081A1, “COMPOUNDS AND METHODS OF TREATING CANCERS” (Cullgen Inc., priority 2023, published 2026).

In this experiment the target is CDK4 (Homo sapiens, UniProt P11802+Q16531). In words: CDK4 percentage degradation in Calu-1 cells (Table 6). The experiment is classed as cell-based. Details: Cells that express cyclin D1-3 and CDK4/6 proteins were treated with heterobifunctional compounds; endogenous in cells; host or cells: Calu-1. As to conditions: 16 hours; for inhibition at 0.04 µM: 40 nM; for inhibition at 0.2 µM: 200 nM. The method, then:
Calu-(cells were treated with heterobifunctional compounds at 40 nM or 200 nM for 16 hours A: protein percentage degradation […]; B: protein percentage degradation <80%, and ≥50%; C: protein percentage degradation <50%, and ≥30%; D; protein percentage degradation […]; -, data not available.
Calu-1, T47D, MCF7, HCC1428 and other cells were cultured at 37° C. with 5% CO2 in RPMI 1640 or DMEM medium supplemented with 10% fetal bovine serum. Cells were authenticated using the short tandem repeat (STR) assays. Mycoplasma test results were negative. For palbo-resistant cell model, T47D cells were cultured long-term to resistance in the presence of 1 μM Palbociclib. Cells were deemed resistant when growing in the presence of Palbo at the same rate as parental cells.
Cultured cells were washed with cold PBS once and lysed in cold RIPA buffer supplemented with protease inhibitors and phosphatase inhibitors (Beyotime Biotechnology). The solutions were then incubated at 4 ? for 30 min with gentle agitation to fully lysed cells. Cell lysates were centrifuged at 13,000 rpm for 10 min at 4 ? and pellets were discarded. Total protein concentrations in the lysates were determined following BCA assays (Beyotime Biotechnology). Cell lysates were mixed with Laemmli loading buffer and heated at 99° C. for 5 min. Proteins were resolved on SDS-PAGE and visualized using Western ECL Substrate kits on a ChemiDoc MP Imaging system (Bio-Rad). Protein bands were quantitated using the Image Lab software provided by Bio-Rad.

Sequence of CDK4 (P11802 2-303 limits assumed): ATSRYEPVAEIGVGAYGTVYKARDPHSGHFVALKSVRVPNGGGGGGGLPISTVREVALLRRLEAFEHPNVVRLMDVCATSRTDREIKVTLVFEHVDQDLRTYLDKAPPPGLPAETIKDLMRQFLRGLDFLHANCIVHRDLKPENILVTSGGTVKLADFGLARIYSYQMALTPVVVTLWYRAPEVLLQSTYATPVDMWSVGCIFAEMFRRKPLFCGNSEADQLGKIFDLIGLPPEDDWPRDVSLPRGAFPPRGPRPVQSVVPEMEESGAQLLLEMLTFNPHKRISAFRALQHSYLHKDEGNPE
Sequence of CDK4 (P24385 whole entry partner): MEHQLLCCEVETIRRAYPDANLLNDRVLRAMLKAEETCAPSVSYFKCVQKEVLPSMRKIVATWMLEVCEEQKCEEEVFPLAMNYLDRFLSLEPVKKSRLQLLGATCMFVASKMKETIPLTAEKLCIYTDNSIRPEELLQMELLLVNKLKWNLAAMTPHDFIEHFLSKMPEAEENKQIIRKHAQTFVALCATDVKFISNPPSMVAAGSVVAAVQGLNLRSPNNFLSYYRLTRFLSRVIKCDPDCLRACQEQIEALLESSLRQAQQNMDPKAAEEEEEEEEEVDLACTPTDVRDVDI
Sequence of CDK4 (Q16531 2-1140 limits assumed): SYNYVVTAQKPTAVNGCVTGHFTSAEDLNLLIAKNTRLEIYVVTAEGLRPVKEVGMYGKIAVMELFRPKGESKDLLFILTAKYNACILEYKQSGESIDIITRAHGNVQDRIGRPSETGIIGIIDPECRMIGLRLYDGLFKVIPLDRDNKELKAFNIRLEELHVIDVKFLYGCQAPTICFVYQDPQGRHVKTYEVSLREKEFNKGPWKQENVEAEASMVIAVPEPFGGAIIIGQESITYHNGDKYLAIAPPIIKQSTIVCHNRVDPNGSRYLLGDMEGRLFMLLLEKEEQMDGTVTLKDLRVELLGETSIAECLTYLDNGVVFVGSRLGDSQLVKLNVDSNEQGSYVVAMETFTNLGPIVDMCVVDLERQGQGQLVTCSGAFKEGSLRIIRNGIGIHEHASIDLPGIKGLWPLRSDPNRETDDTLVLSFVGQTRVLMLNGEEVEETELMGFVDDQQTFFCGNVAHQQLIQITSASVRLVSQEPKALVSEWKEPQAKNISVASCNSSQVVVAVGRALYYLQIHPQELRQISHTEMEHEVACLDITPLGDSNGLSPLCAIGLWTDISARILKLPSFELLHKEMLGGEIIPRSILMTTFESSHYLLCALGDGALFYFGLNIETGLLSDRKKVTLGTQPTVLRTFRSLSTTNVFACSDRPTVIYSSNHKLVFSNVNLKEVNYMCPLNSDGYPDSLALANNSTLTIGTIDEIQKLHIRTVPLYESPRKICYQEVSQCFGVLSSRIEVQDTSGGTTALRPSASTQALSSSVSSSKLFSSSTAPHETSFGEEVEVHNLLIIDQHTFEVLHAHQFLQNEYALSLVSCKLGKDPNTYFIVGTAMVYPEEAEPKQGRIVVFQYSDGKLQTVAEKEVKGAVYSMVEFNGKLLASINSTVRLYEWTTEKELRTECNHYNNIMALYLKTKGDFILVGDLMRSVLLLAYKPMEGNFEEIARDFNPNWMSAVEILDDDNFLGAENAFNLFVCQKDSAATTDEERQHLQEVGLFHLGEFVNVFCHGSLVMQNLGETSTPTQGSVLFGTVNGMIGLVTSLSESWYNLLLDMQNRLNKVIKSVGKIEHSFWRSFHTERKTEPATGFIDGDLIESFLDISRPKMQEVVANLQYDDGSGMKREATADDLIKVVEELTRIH

Turning to `CNc1ccc(C(=O)Nc2ccc(C)c(C(C)C)n2)c(NCCCCCNC(=O)CN2CCN(c3ccc(Nc4ncc5c(C)c(C(C)=O)c(=O)n(C6CCCC6)c5n4)nc3)CC2)n1` [CPD-111, 2-((5-(2-(4-(6-((6-Acetyl-8-cyclopentyl-5-methyl-7-oxo-7,8-dihydropyrido[2,3-d]pyrimidin-2-yl)amino)pyridin-3-yl)piperazin-1-yl)acetamido)pentyl)amino)-N-(6-isopropyl-5-methylpyridin-2-yl)-6-(methylamino)nicotinamide], the inhibition at 0.04 µM was less than 30% and the inhibition at 0.2 µM lay in the range of 50 to 80%.
On the same counts, the results for `CNc1ccc(C(=O)Nc2ccc(N(C)C)nn2)c(NC2CC3(C2)CC(C(=O)N2CCN(c4ccc(Nc5ncc6c(C)c(C(C)=O)c(=O)n(C7CCCC7)c6n5)nc4)CC2)C3)n1` (centres unmarked) [CPD-140, 2-((6-(4-(6-((6-Acetyl-8-cyclopentyl-5-methyl-7-oxo-7,8-dihydropyrido[2,3-d]pyrimidin-2-yl)amino)pyridin-3-yl)piperazine-1-carbonyl)spiro[3.3]heptan-2-yl)amino)-N-(6-(dimethylamino)pyridazin-3-yl)-6-(methylamino)nicotinamide] are less than 30% and 50 to 80%.
On the same counts, the results for `CNc1ccc(C(=O)Nc2cccc(C3CC3)n2)c(NC2CC(CNC(=O)CN3CCN(c4ccc(Nc5ncc6c(C)c(C(C)=O)c(=O)n(C7CCCC7)c6n5)nc4)CC3)C2)n1` (centres unmarked) [CPD-162, 2-((3-((2-(4-(6-((6-acetyl-8-cyclopentyl-5-methyl-7-oxo-7,8-dihydropyrido[2,3-d]pyrimidin-2-yl)amino)pyridin-3-yl)piperazin-1-yl)acetamido)methyl)cyclobutyl)amino)-N-(6-cyclopropylpyridin-2-yl)-6-(methylamino)nicotinamide] are 50 to 80% and 50 to 80%.
Regarding `CNc1ccc(C(=O)Nc2ccc(C)c(C3CC3)n2)c(NCCCCCCCNC(=O)CN2CCN(c3ccc(Nc4ncc5c(C)c(C(C)=O)c(=O)n(C6CCCC6)c5n4)nc3)CC2)n1` [CPD-6, 2-((7-(2-(4-(6-((6-acetyl-8-cyclopentyl-5-methyl-7-oxo-7,8-dihydropyrido[2,3-d]pyrimidin-2-yl)amino)pyridin-3-yl)piperazin-1-yl)acetamido)heptyl)amino)-N-(6-cyclopropyl-5-methylpyridin-2-yl)-6-(methylamino)nicotinamide], the inhibition at 0.04 µM was in the range of 50 to 80%.
The compound `CNc1ccc(C(=O)Nc2ccc(N(C)C)nn2)c(NC2CC3(CC(CCCN4CCN(c5ccc(Nc6ncc7c(C)c(C(C)=O)c(=O)n(C8CCCC8)c7n6)nc5)CC4)C3)C2)n1` (centres unmarked) [CPD-83, 2-((6-(3-(4-(6-((6-Acetyl-8-cyclopentyl-5-methyl-7-oxo-7,8-dihydropyrido[2,3-d]pyrimidin-2-yl)amino)pyridin-3-yl)piperazin-1-yl)propyl)spiro[3.3]heptan-2-yl)amino)-N-(6-(dimethylamino)pyridazin-3-yl)-6-(methylamino)nicotinamide] had an inhibition at 0.04 µM of less than 30% and an inhibition at 0.2 µM of 30 to 50%.
As to `CNc1ccc(C(=O)Nc2cccc(C(C)C)n2)c(NC2CC3(CC(NC(=O)CN4CCN(c5ccc(Nc6ncc7c(C)c(C(C)=O)c(=O)n(C8CCCC8)c7n6)nc5)CC4)C3)C2)n1` (centres unmarked) [CPD-76, 2-((6-(2-(4-(6-((6-Acetyl-8-cyclopentyl-5-methyl-7-oxo-7,8-dihydropyrido[2,3-d]pyrimidin-2-yl)amino)pyridin-3-yl)piperazin-1-yl)acetamido)spiro[3.3]heptan-2-yl)amino)-N-(6-isopropylpyridin-2-yl)-6-(methylamino)nicotinamide], the inhibition at 0.04 µM is less than 30% and the inhibition at 0.2 µM lay in the range of 30 to 50%.
The corresponding values for `CNc1ccc(C(=O)Nc2ccc(N(C)C)nn2)c(NC2CCN(C(=O)CN3CCN(c4ccc(Nc5ncc6c(C)c(C(C)=O)c(=O)n(C7CCCC7)c6n5)nc4)CC3)C2)n1` (centres unmarked) [CPD-201, 2-((1-(2-(4-(6-((6-acetyl-8-cyclopentyl-5-methyl-7-oxo-7,8-dihydropyrido[2,3-d]pyrimidin-2-yl)amino)pyridin-3-yl)piperazin-1-yl)acetyl)pyrrolidin-3-yl)amino)-N-(6-(dimethylamino)pyridazin-3-yl)-6-(methylamino)nicotinamide] are 30 to 50% and 50 to 80%.
Regarding `CNc1ccc(C(=O)Nc2ccc(N(C)C)nn2)c(NC2CC3(C2)CN(C(=O)CN2CCN(c4ccc(Nc5ncc6c(C)c(C(C)=O)c(=O)n(C7CCCC7)c6n5)nc4)CC2)C3)n1` [CPD-97], the inhibition at 0.04 µM lay in the range of 50 to 80% and the inhibition at 0.2 µM was greater than 80%.
On the same counts, the results for `CNc1ccc(C(=O)Nc2cc(C)n(C)n2)c(NC2CC(NC(=O)CN3CCN(c4ccc(Nc5ncc6c(C)c(C(C)=O)c(=O)n(C7CCCC7)c6n5)nc4)CC3)C2)n1` (centres unmarked) [CPD-197, 2-((3-(2-(4-(6-((6-acetyl-8-cyclopentyl-5-methyl-7-oxo-7,8-dihydropyrido[2,3-d]pyrimidin-2-yl)amino)pyridin-3-yl)piperazin-1-yl)acetamido)cyclobutyl)amino)-N-(1,5-dimethyl-1H-pyrazol-3-yl)-6-(methylamino)nicotinamide] are less than 30% and 30 to 50%.
The corresponding values for `CC(=O)c1c(C)c2cnc(Nc3ccc(N4CCN(CC(=O)NC5CC6(C5)CC(Nc5nc(C)ccc5C(=O)Nc5cc(C)on5)C6)CC4)cn3)nc2n(C2CCCC2)c1=O` (centres unmarked) [CPD-192, ((6-(2-(4-(6-((6-acetyl-8-cyclopentyl-5-methyl-7-oxo-7,8-dihydropyrido[2,3-d]pyrimidin-2-yl)amino)pyridin-3-yl)piperazin-1-yl)acetamido)spiro[3.3]heptan-2-yl)amino)-6-methyl-N-(5-methylisoxazol-3-yl)nicotinamide] are less than 30% and less than 30%.
`CC(=O)c1c(C)c2cnc(Nc3ccc(N4CCN(CC(=O)NCCC5CC(Nc6nc(C7CC7)ccc6C(=O)Nc6ccc(C)c(C7CC7)n6)C5)CC4)cn3)nc2n(C2CCCC2)c1=O` (centres unmarked) [CPD-45, 2-((3-(2-(2-(4-(6-((6-Acetyl-8-cyclopentyl-5-methyl-7-oxo-7,8-dihydropyrido[2,3-d]pyrimidin-2-yl)amino)pyridin-3-yl)piperazin-1-yl)acetamido)ethyl)cyclobutyl)amino)-6-cyclopropyl-N-(6-cyclopropyl-5-methylpyridin-2-yl)nicotinamide] had an inhibition at 0.04 µM of less than 30% and an inhibition at 0.2 µM of less than 30%.
Compound `CNc1ccc(C(=O)Nc2cc(C(C)C)n(C)n2)c(NC2CC3(CC(NC(=O)CN4CCN(c5ccc(Nc6ncc7c(C)c(C(C)=O)c(=O)n(C8CCCC8)c7n6)nc5)CC4)C3)C2)n1` (centres unmarked) [CPD-95, 2-((6-(2-(4-(6-((6-Acetyl-8-cyclopentyl-5-methyl-7-oxo-7,8-dihydropyrido[2,3-d]pyrimidin-2-yl)amino)pyridin-3-yl)piperazin-1-yl)acetamido)spiro[3.3]heptan-2-yl)amino)-N-(5-isopropyl-1-methyl-1H-pyrazol-3-yl)-6-(methylamino)nicotinamide] displayed an inhibition at 0.04 µM of less than 30% and an inhibition at 0.2 µM of less than 30%.
On to `CNc1ccc(C(=O)Nc2cccc(C(F)F)n2)c(NC2CC3(CC(NC(=O)CN4CCN(c5ccc(Nc6ncc7c(C)c(C(C)=O)c(=O)n(C8CCCC8)c7n6)nc5)CC4)C3)C2)n1` (centres unmarked) [CPD-184, 2-((6-(2-(4-(6-((6-acetyl-8-cyclopentyl-5-methyl-7-oxo-7,8-dihydropyrido[2,3-d]pyrimidin-2-yl)amino)pyridin-3-yl)piperazin-1-yl)acetamido)spiro[3.3]heptan-2-yl)amino)-N-(6-(difluoromethyl)pyridin-2-yl)-6-(methylamino)nicotinamide], for which the inhibition at 0.04 µM lay within 50 to 80% and the inhibition at 0.2 µM fell in the range of 50 to 80%.
For the compound `CNc1ccc(C(=O)Nc2cn(C)cn2)c(NC2CC3(CC(NC(=O)CN4CCN(c5ccc(Nc6ncc7c(C)c(C(C)=O)c(=O)n(C8CCCC8)c7n6)nc5)CC4)C3)C2)n1` (centres unmarked) [CPD-152, 2-((6-(2-(4-(6-((6-acetyl-8-cyclopentyl-5-methyl-7-oxo-7,8-dihydropyrido[2,3-d]pyrimidin-2-yl)amino)pyridin-3-yl)piperazin-1-yl)acetamido)spiro[3.3]heptan-2-yl)amino)-N-(1-methyl-1H-imidazol-4-yl)-6-(methylamino)nicotinamide], the inhibition at 0.04 µM was 30 to 50% and the inhibition at 0.2 µM fell in the range of 50 to 80%.
`CNc1ccc(C(=O)Nc2cccc(C)n2)c(NC[C@H]2CC[C@H](NC(=O)CN3CCN(c4ccc(Nc5ncc6c(C)c(C(C)=O)c(=O)n(C7CCCC7)c6n5)nc4)CC3)CC2)n1` [CPD-126, 2-(((trans-4-(2-(4-(6-((6-Acetyl-8-cyclopentyl-5-methyl-7-oxo-7,8-dihydropyrido[2,3-d]pyrimidin-2-yl)amino)pyridin-3-yl)piperazin-1-yl)acetamido)cyclohexyl)methyl)amino)-6-(methylamino)-N-(6-methylpyridin-2-yl)nicotinamide] came in with an inhibition at 0.04 µM of less than 30% and an inhibition at 0.2 µM of 50 to 80%.
